Target: T1, γ-secretase (Homo sapiens, UniProt P49768)
T1 construct: endogenous in cells; host or cells: SKNBE2 cells carrying APP 695 wild type
Experiment: Screening for γ-secretase-modulating activity in SKNBE2 cells carrying the APP 695 wild type
Assay type: cell-based
Settings: SKNBE2 cells carrying APP 695 wild type
Description: Screening of the Compounds of the Invention for γ-Secretase-Modulating Activity
Screening was carried out using SKNBE2 cells carrying the APP 695—wild type, grown in DMEM/NUT-mix F12 (HAM) provided by Gibco (cat no. 31330-38) containing 5% Serum/Fe supplemented with 1% non-essential amino acids.
Cells were grown to near confluency.
The screening was performed using the assay as described in Citron et al (1997) Nature Medicine 3: 67.

SMILES: CC(C)C[C@@H](C(=O)O)c1cc(NCc2ccc(C(F)(F)F)cc2)cc(-c2ccc(C(F)(F)F)cc2)c1 [Compound 44, (R) 4-Methyl-2-[4′-trifluoromethyl-5-(4-trifluoromethyl-benzylamino)-biphenyl-3-yl]-pentanoic acid]
- inhibition at 0.3 µM: 7%

SMILES: CC(C)CC(C(=O)O)c1cc(-c2ccc(C(F)(F)F)cc2)cc(N(C)c2ccc(C(F)(F)F)cc2)c1 (stereo not shown) [Example 19, 4-Methyl-2-{5-[methyl-(4-trifluoromethyl-phenyl)-amino]-4′-trifluoromethyl-biphenyl-3-yl}-pentanoic acid]
- inhibition at 0.3 µM: 22%

SMILES: CC(C)CCN(Cc1cc(F)cc(F)c1)Cc1cc(-c2ccc(C(F)(F)F)cc2)cc(C(CC(C)C)C(=O)O)c1 (stereo not shown) [Compound 59, 2-(5-{[(3,5-Difluoro-benzyl)-(3-methyl-butyl)-amino]-methyl}-4′-trifluoromethyl-biphenyl-3-yl)-4-methyl-pentanoic acid]
- EC50: 240 nM

SMILES: CC(C)CC(C(=O)O)c1cc(NC2CCCc3ccccc32)cc(-c2ccc(C(F)(F)F)cc2)c1 (stereo not shown) [Compound 34, 4-Methyl-2-[5-(1,2,3,4-tetrahydro-naphthalen-1-ylamino)-4′-trifluoromethyl-biphenyl-3-yl]-pentanoic acid]
- inhibition at 0.3 µM: 22%

SMILES: CC(C)CCC(Nc1cc(-c2ccc(C(F)(F)F)cc2)cc(C(CC(C)C)C(=O)O)c1)c1ccc(C(F)(F)F)cc1 (stereo not shown) [Compound 31, 4-Methyl-2-{5-[4-methyl-1-(4-trifluoromethyl-phenyl)-pentylamino]-4′-trifluoromethyl-biphenyl-3-yl}-pentanoic acid]
- EC50: 270 nM

SMILES: CC(C)CCN(Cc1ccc(C(F)(F)F)cc1)Cc1cc(-c2ccc(C(F)(F)F)cc2)cc(C(CC(C)C)C(=O)O)c1 (stereo not shown) [Compound 56, 4-Methyl-2-(5-{[(3-methyl-butyl)-(4-trifluoromethyl-benzyl)-amino]-methyl}-4′-trifluoromethyl-biphenyl-3-yl)-pentanoic acid]
- EC50: 220 nM

SMILES: CC(C)CCC(Nc1cc(CC(=O)O)cc(-c2ccc(C(F)(F)F)cc2)c1)c1cc(F)cc(F)c1 (stereo not shown) [Compound 33]
- inhibition at 0.3 µM: 11%

SMILES: CC(C)CCN(Cc1ccc(C(F)(F)F)cc1)Cc1cc(CC(=O)O)cc(-c2ccc(C(F)(F)F)cc2)c1 [Compound 58, (5-{[(3-Methyl-butyl)-(4-trifluoromethyl-benzyl)-amino]-methyl}-4′-trifluoromethyl-biphenyl-3-yl)-acetic acid]
- EC50: 590 nM

SMILES: CC(C)CCN(c1cc(-c2ccc(C(F)(F)F)cc2)cc(C(CC(C)C)C(=O)O)c1)c1cccc(C(F)(F)F)c1 (stereo not shown) [Example 17, 4-Methyl-2-{5-[(3-methyl-butyl)-(3-trifluoromethyl-phenyl)-amino]-4′-trifluoromethyl-biphenyl-3-yl}-pentanoic acid]
- EC50: 260 nM

SMILES: CC(C)CC(C(=O)O)c1cc(-c2ccc(C(F)(F)F)cc2)cc(N(C)c2cc(C(F)(F)F)ccc2C(F)(F)F)c1 (stereo not shown) [Example 12, 2-{5-[(2,5-Bis-trifluoromethyl-phenyl)-methyl-amino]-4′-trifluoromethyl-biphenyl-3-yl}-4-methyl-pentanoic acid]
- EC50: 160 nM

SMILES: CC(C)CC(C(=O)O)c1cc(-c2ccc(C(F)(F)F)cc2)cc(N(C)c2cccc(C(F)(F)F)c2)c1 (stereo not shown) [Example 2, 4-Methyl-2-{5-[methyl-(3-trifluoromethyl-phenyl)-amino]-4′-trifluoromethyl-biphenyl-3-yl}-pentanoic acid]
- EC50: 220 nM

SMILES: CC(C)CCN(Cc1cc(CC(=O)O)cc(-c2ccc(C(F)(F)F)cc2)c1)Cc1ccc(Cl)c(F)c1 [Compound 57, (5-{[(4-Chloro-3-fluoro-benzyl)-(3-methyl-butyl)-amino]-methyl}-4′-trifluoromethyl-biphenyl-3-yl)-acetic acid]
- inhibition at 0.3 µM: 11%

SMILES: CC(C)CCN(Cc1ccc(OC(F)(F)F)cc1)c1cc(-c2ccc(C(F)(F)F)cc2)cc([C@@H](CC(C)C)C(=O)O)c1 [Compound 42, (R) 4-Methyl-2-{5-[(3-methyl-butyl)-(4-trifluoromethoxy-benzyl)-amino]-4′-trifluoromethyl-biphenyl-3-yl}-pentanoic acid]
- EC50: 640 nM

SMILES: CC(C)CC(C(=O)O)c1cc(-c2ccc(Cl)c(C(F)(F)F)c2)cc(N(C)c2cc(C(F)(F)F)cc(C(F)(F)F)c2)c1 (stereo not shown) [Compound 27, 2-[4′-Chloro-5-(N-[3,5-bis-(trifluoromethyl)phenyl]-N-methylamino)-3′-trifluoromethyl-biphenyl-3-yl]-4-methyl-pentanoic acid]
- EC50: 480 nM

SMILES: CC(C)CCN(Cc1cc(C(F)(F)F)cc(C(F)(F)F)c1)c1cc(-c2ccc(C(F)(F)F)cc2)cc([C@@H](CC(C)C)C(=O)O)c1 [Compound 49, (R) 2-{5-[(3,5-Bis-trifluoromethyl-benzyl)-(3-methyl-butyl)-amino]-4′-trifluoromethyl-biphenyl-3-yl}-4-methyl-pentanoic acid]
- EC50: 220 nM

SMILES: CC(C)CC(C(=O)O)c1cc(-c2ccc(C(F)(F)F)cc2)cc(N2CCCc3ccc(C(F)(F)F)cc32)c1 (stereo not shown) [Compound 26, 4-Methyl-2-[4′-trifluoromethyl-5-(7-trifluoromethyl-3,4-dihydro-2H-quinolin-1-yl)-biphenyl-3-yl]-pentanoic acid]
- EC50: 360 nM

SMILES: CC(C)CCC(Nc1cc(-c2ccc(C(F)(F)F)cc2)cc(C(CC(C)C)C(=O)O)c1)c1cc(F)c(F)c(F)c1 (stereo not shown) [Compound 38, 4-Methyl-2-{5-[4-methyl-1-(3,4,5-trifluoro-phenyl)-pentylamino]-4′-trifluoromethyl-biphenyl-3-yl}-pentanoic acid]
- EC50: 230 nM

SMILES: CC(C)CC(C(=O)O)c1cc(-c2ccc(C(F)(F)F)cc2)cc(N(C)c2ccc(Cl)cc2)c1 (single isomer, unassigned) [Example 22, (S*)2-{5-[(4-Chloro-phenyl)-methyl-amino]-4′-trifluoromethyl-biphenyl-3-yl}-4-methyl-pentanoic acid]
- EC50: 2150 nM

SMILES: CC(C)CC(C(=O)O)c1cc(-c2ccc(C(F)(F)F)cc2)cc(N(C)c2cc(C(F)(F)F)cc(C(F)(F)F)c2)c1 (stereo not shown) [Example 10, 2-{5-[(3,5-Bis-trifluoromethyl-phenyl)-methyl-amino]-4′-trifluoromethyl-biphenyl-3-yl}-4-methyl-pentanoic acid]
- EC50: 190 nM

SMILES: CC(C)C[C@@H](C(=O)O)c1cc(NCc2cc(C(F)(F)F)cc(C(F)(F)F)c2)cc(-c2ccc(C(F)(F)F)cc2)c1 [Compound 46, (R) 2-[5-(3,5-Bis-trifluoromethyl-benzylamino)-4′-trifluoromethyl-biphenyl-3-yl]-4-methyl-pentanoic acid]
- inhibition at 0.3 µM: 6%

SMILES: CC(C)CCN(Cc1ccc(C#N)cc1)c1cc(-c2ccc(C(F)(F)F)cc2)cc([C@@H](CC(C)C)C(=O)O)c1 [Compound 48, (R) 2-{5-[(4-Cyano-benzyl)-(3-methyl-butyl)-amino]-4′-trifluoromethyl-biphenyl-3-yl}-4-methyl-pentanoic acid]
- inhibition at 0.3 µM: 31%

SMILES: CC(C)CCN(Cc1cc(-c2ccc(C(F)(F)F)cc2)cc([C@@H](CC(C)C)C(=O)O)c1)c1ccc(C(F)(F)F)cc1 [Compound 63, 4-Methyl-2-(5-{[(3-methyl-butyl)-(4-trifluoromethyl-phenyl)-amino]-methyl}-4′-trifluoromethyl-biphenyl-3-yl)-pentanoic acid]
- EC50: 250 nM

SMILES: CC(C)CC(C(=O)O)c1cc(-c2ccc(C(F)(F)F)cc2)cc(N(C)c2ccc(C#N)cc2)c1 (stereo not shown) [Example 8, 2-{5-[(4-Cyano-phenyl)-methyl-amino]-4′-trifluoromethyl-biphenyl-3-yl}-4-methyl-pentanoic acid]
- % printed in the EC50 column, no concentration given (concentration not given): −0%

SMILES: CC(C)CCC(c1cc(F)cc(F)c1)N(C)c1cc(-c2ccc(C(F)(F)F)cc2)cc(C(CC(C)C)C(=O)O)c1 (stereo not shown) [Compound 50, 2-(5-{[1-(3,5-Difluoro-phenyl)-4-methyl-pentyl]-methyl-amino}-4′-trifluoromethyl-biphenyl-3-yl)-4-methyl-pentanoic acid]
- inhibition at 0.3 µM: 65%

SMILES: CC(C)C[C@@H](C(=O)O)c1cc(NCc2ccc(C#N)cc2)cc(-c2ccc(C(F)(F)F)cc2)c1 [Compound 47, (R) 2-[5-(4-Cyano-benzylamino)-4′-trifluoromethyl-biphenyl-3-yl]-4-methyl-pentanoic acid]
- inhibition at 0.3 µM: 0%

SMILES: CC(C)CCN(Cc1ccc(C(F)(F)F)cc1)c1cc(-c2ccc(C(F)(F)F)cc2)cc(C(CC(C)C)C(=O)O)c1 (stereo not shown) [Compound 45, 4-Methyl-2-{5-[(3-methyl-butyl)-(4-trifluoromethyl-benzyl)-amino]-4′-trifluoromethyl-biphenyl-3-yl}-pentanoic acid]
- EC50: 580 nM

SMILES: CC(C)CC(C(=O)O)c1cc(-c2ccc(C(F)(F)F)cc2)cc(N(C)c2ccc(Cl)c(C(F)(F)F)c2)c1 (stereo not shown) [Example 9, 2-{5-[(4-Chloro-3-trifluoromethyl-phenyl)-methyl-amino]-4′-trifluoromethyl-biphenyl-3-yl}-4-methyl-pentanoic acid]
- EC50: 330 nM

SMILES: CC(C)C[C@@H](C(=O)O)c1cc(NCc2cc(F)cc(F)c2)cc(-c2ccc(C(F)(F)F)cc2)c1 [Compound 43, (R) 2-[5-(3,5-Difluoro-benzylamino)-4′-trifluoromethyl-biphenyl-3-yl]-4-methyl-pentanoic acid]
- inhibition at 0.3 µM: 0%

SMILES: CC(C)CC(C(=O)O)c1cc(NCc2ccc(C(C)(C)C)cc2)cc(-c2ccc(C(F)(F)F)cc2)c1 (stereo not shown) [Compound 37, 2-[5-(4-tert-Butyl-benzylamino)-4′-trifluoromethyl-biphenyl-3-yl]-4-methyl-pentanoic acid]
- inhibition at 0.3 µM: 18%

SMILES: CC(C)CC(C(=O)O)c1cc(-c2ccc(C(F)(F)F)cc2)cc(N2CCc3ccccc3C2)c1 (stereo not shown) [Compound 53, 4-Methyl-2-[-5-(3,4-dihydroisoquinolin-2(1H)-yl)-4′-(trifluoromethyl)biphenyl-3-yl]-pentanoic acid]
- inhibition at 0.3 µM: 0%

SMILES: CC(C)CCC(Nc1cc(CC(=O)O)cc(-c2ccc(C(F)(F)F)cc2)c1)c1ccc(C(F)(F)F)cc1 (stereo not shown) [Compound 32]
- inhibition at 0.3 µM: 25%
